Results published in patent US20190255087A1, “ENCAPSULATION AND HIGH LOADING EFFICIENCY OF PHOSPHORYLATED DRUG AND IMAGING AGENTS IN NANOPARTICLES” (THE PENN STATE RESEARCH FOUNDATION, priority 2016, published 2019).
Where “and” joins values, the source holds several entries; their conditions need not be identical. Identical values can stand only once.

Experiments:
[1] = Encapsulated drug concentration and encapsulation efficiency (EE) in Cit-X-CPSNPs by LC-MS/MS; format: physicochemical; details: for Drug concentration (M) / EE (mol %): citrate-functionalized CPSNPs, weighted mean ± 95% confidence interval, n = 4-6 replicates
Procedure: The encapsulation efficiencies (EE) in Table 1 was experimentally determined by LC-MS/MS for 5FU, 5FU:ATP, FUdR, FdUMP, Gem, and GemMP, as drawn in FIG. 2 1. The EE is defined by the following equation,
(§1) where mi was the total drug content in moles and mf was the moles encapsulated as assessed by LC-MS/MS. Particles were diluted in 10% methanol with 0.1% formic acid and 5-CU was spiked in as an internal standard. Chromatography was done on a 2.1 mm×10 cm HSS T3 or C18 CSH column (Waters) on a Waters I-class FTN chromatography system with the column temperature at 40° C. Mobile phase A was water with 5 mM ammonium acetate and B was methanol. The flow rate was 0.5 mL/min and the chromatography consisted of holding at 7.5% B for 1 min, increasing to 95% B over 0.5 min, holding at 95% B for 0.5 min before equilibration to starting conditions. Eluate was analyzed by an inline Waters TQ-S mass spectrometer. The capillary was set at 1.0 kV, source temperature at 150° C., desolvation temperature at 600° C., cone gas at 150 L/hr, and desolvation gas flow at 1200 L/hr. Multiple reaction monitoring (MRM) was used to detect 5-CU, FdUMP, Gem, and GemMP. The MRM transition used for 5-CU was 145 >42 with the collision energy set at 12. The MRM transition used for drug agents was 325 >195 with the collision energy set at 12. Drug concentrations were determined using TargetLynx version 4.1 (Waters) using an external calibration curve with 1/x weighting.
as §1, with “Particles” for “where mi was the total drug content in moles and mf was the moles encapsulated as assessed by LC-MS/MS. Particles”, “5-CU” for “5-CU, FdUMP, Gem,”, “FdUMP.” for “GemMP.”, “FdUMP” for “drug agents”, “FdUMP” for “Drug”

PANC-1 [2] = assay: Cell cycle analysis by propidium iodide flow cytometry; format: cell-based, human; details: PANC-1, 72 hr, 250 μM
Procedure: (§2) For determination of nuclear DNA content, PANC-1 treatments included NT, vehicle (1× sterile calcium- and magnesium-free PBS), 250 μM free FdUMP, Ghost-CPSNPs, or 200 nM FdUMP-CPSNPs. After 72 hours of treatment, cells were fixed in 75% ethanol overnight. Immediately prior to analysis, cells were treated with 1 μg/mL of RNase A and stained with 50 μg/mL of propidium iodide, which is taken up by double-stranded DNA. DNA content was determined using a FACSCalibur flow cytometer (BD Biosciences), and data were analyzed with Cellquest (Verity Software).
as §2, with “FdUMP, ghost-CPSNPs,” for “FdUMP, Ghost-CPSNPs,”, “50 µg/mL” for “50 μg/mL”

[3] = molecular target: T1, thymidylate synthase (TS) (Homo sapiens, UniProt P04818); assay: Thymidylate synthase immunoblotting, BxPC-3 cells; format: cell-based; parameters: PANC-1 cells were incubated for 24 hours in the following treatment groups; endogenous in cells; details: 250 μM free FdUMP
T1 sequence (P04818 2-313 limits assumed): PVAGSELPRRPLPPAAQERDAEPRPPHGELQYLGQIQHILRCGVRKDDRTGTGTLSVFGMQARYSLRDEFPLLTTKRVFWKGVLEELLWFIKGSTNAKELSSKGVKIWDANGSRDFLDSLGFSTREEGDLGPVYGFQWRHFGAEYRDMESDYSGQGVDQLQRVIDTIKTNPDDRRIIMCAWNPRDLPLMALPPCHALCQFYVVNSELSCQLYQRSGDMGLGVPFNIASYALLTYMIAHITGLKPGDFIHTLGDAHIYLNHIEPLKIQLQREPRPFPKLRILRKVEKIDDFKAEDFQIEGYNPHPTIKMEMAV

[4] = molecular target: T1, thymidylate synthase (TS); assay: Thymidylate synthase immunoblotting, PANC-1 cells; format: cell-based; parameters: endogenous in cells; host or cells: PANC-1 (ATCC); details: 250 μM free FdUMP
Procedure: Thus in the presence of folate, TS dimers and FdUMP create an irreversibly inactivated enzyme:drug complex.^59 Experimentally, the inhibition of TS activity by FdUMP can be detected by the presence of this stable ternary complex.
PANC-1 cells were incubated for 24 hours in the following treatment groups: NT, vehicle, 250 μM free FdUMP, 200 nM FdUMP-CPSNPs, and Ghost-CPSNPs in PBS. Lysates were collected by aspirating the media, washing with 1×PBS, and adding RIPA buffer containing Complete Mini protease cocktail (Roche). Lysates were spun to remove debris and the supernatants frozen at −80° C. Protein concentration was determined by micro BCA protein assay (Thermo Scientific) and 20 μg of protein separated by gel electrophoresis. After transfer to HyBond ECL and blocking for 1 hr in 5% BSA, blots were probed overnight with anti-TS antibody (1:1000, D5B3, #9045 Cell Signaling). Blots were washed, probed with anti-rabbit-HRP secondary antibody for 1 hour and developed with Pierce Pico (Thermo Scientific). Quantitation of scanned blots was done using Image J software.
PANC-1 cells were incubated for 24 hours in the following treatment groups: NT, vehicle, 250 μM free FdUMP, 200 nM FdUMP-CPSNPs, and ghost-CPSNPs in PBS. […] Lysates were spun to remove debris and the supernatants frozen at −80° C. […] Quantitation of scanned blots was done using Image J software.

PANC-1 [5] = assay: Cell proliferation assay (alamarBlue); format: cell-based, human; details: for EC50 of free drug, PANC-1: in words
Excerpt: (§3) CPSNPs in 70/30 ethanol/water suspensions were completely dried under pre-purified argon and reconstituted in sterile 1×PBS without calcium or magnesium.
(§4) BxPC-3 and Panc-1 were obtained from ATCC. RLT-PSC pancreatic stellate cells were a gift from Professor Ralf Jesenofsky, University of Heidelberg, and H6c7, immortalized human pancreatic ductal epithelial cells, were a gift of Dr. Ming-Sound Tsao, University of Toronto. H6c7 cells have a near normal genotype with wild type p53 and KRAS genes. Cells were cultured in the appropriate media as follows: Dulbecco's modified Eagle medium with 10% FBS for PANC-1 and RLT-PSC, RPMI 1640 with 10% FBS for BxPC-3, and complete keratinocyte basal medium (KBM), containing growth factors, hormones and bovine pituitary extract for H6c7 cells (Invitrogen).
(§5) PANC-1, BxPC-3, RLT-PSC and H6c7 cells were seeded into 96 well plates at 5,000 cells per well. At 24 hours post seeding, media only/no treatment (NT), vehicle (lx sterile PBS without calcium and magnesium), 5FU and FdUMP treatments were initiated and viable cells determinations were made at 24, 48 or 72 hr post-treatment using an alamarBlue® assay (Life Technologies). Data were normalized to vehicle treatments for all time points.
as §5, with “CPSNPs in 70/30 ethanol/water suspensions were completely dried under pre-purified argon and reconstituted in sterile 1×PBS without calcium or magnesium. PANC-1,” for “PANC-1,”, “(1×” for “(lx”
(§6) Results were expressed as means±standard error. Student t-tests were used to evaluate statistical significance with a p<0.05 considered to be significant. To calculate EC50±95% CI, nonlinear regression analysis was performed to generate the curve of best fit for the data according to a Sigmoidal regression using a 4-parameter logistic curve calibration [Y=Yo+(a/(1+((X/Xo)^b))] in SigmaPlot 12 (Systat, Inc.).

BxPC-3 = assay: Cell proliferation assay (alamarBlue); format: cell-based, human; details: for Decrease of BxPC-3 proliferation: 200 μM free drug; for EC50 of free drug, BxPC-3: in words
Excerpt: as §3, §4, §5
as §5, with “CPSNPs in 70/30 ethanol/water suspensions were completely dried under pre-purified argon and reconstituted in sterile 1×PBS without calcium or magnesium. PANC-1,” for “PANC-1,”, “(1×” for “(lx”
as §6

[6] = in vivo; cited from earlier work

Compound | EE, range over replicated formulations ([1]; Cit-X-CPSNPs) | Drug concentration (M) [1] | EE (mol %) [1] | % Cells in G2/M (PANC-1 [2]) [%] | % Cells in G1/G0 (PANC-1 [2]; listed as free FdUMP) | % Cells in S (PANC-1 [2]; listed as free FdUMP) | TS in inactive ternary complex (inhibition), BxPC-3 [3] [%] | TS in inactive ternary complex (inhibition), PANC-1 [4] [%] | Encapsulated drug concentration, range over replicated formulations ([1]; Cit-X-CPSNPs) [µM] | Reduction of PANC-1 proliferation (PANC-1 [5]; 200 μM free drug) | EC50 of free drug, PANC-1 (PANC-1 [5]) | Decrease of BxPC-3 proliferation (BxPC-3) | EC50 of free drug, BxPC-3 (BxPC-3) | Fraction of 5FU catabolized to 5-fluorodihydrouracil by DPD [6] | Fraction of 5FU pro-drug activated to FdUMP [6]
O=c1[nH]c(=O)n([C@H]2C[C@H](O)[C@@H](CO)O2)cc1F [FUdR, 5-fluoro-2′-deoxyuridine] | < 0.01 mol % | 2.8 (±1.2)×10^−8 M | < 0.01 mol % |  |  |  |  |  |  |  |  |  |  |  | 
O=c1[nH]c(=O)n([C@H]2C[C@H](O)[C@@H](COP(=O)(O)O)O2)cc1F [FdUMP, 5-fluoro-2′-deoxyuridine 5′-monophosphate] | 7-97 mol % | 3.0 (±1.4)×10^−4 M | 41 (±16) mol % | 23.5 ± 6.3 | 20% and 20.3 ± 3.0% | 56% and 56.3 ± 10.3% | 90 | 80 | 60 to 830 | twice as effective as free 5FU | low uM | equally effective | low uM |  | 
O=c1[nH]cc(F)c(=O)[nH]1 [Formulation 5FU, 5-fluorouracil] |  | 4.1 (±1.8)×10^−7 M | 0.11 (±0.04) mol % |  |  |  |  |  |  |  | low uM | equally effective | low uM | more than 80% | less than 20%
Nc1ccn([C@@H]2O[C@H](CO)[C@@H](O)C2(F)F)c(=O)n1 [Gem, 2′,2′-difluorodeoxycytidine] |  | 1.9 (±0.6)×10^−9 M | < 0.01 mol % |  |  |  |  |  |  |  |  |  |  |  | 
gemcitabine monophosphate [GemMP] | 15-30 mol % | 2.3 (±0.4)×10^−5 M | 22 (±6) mol % |  |  |  |  |  |  |  | nM range |  | nM range |  | 
